In brackets after ≈: the same amount, converted by molar mass.
Tests used:
[1] = tested on: LoVo (colon adenocarcinoma); assay: Colony assay, cytotoxic activity on LoVo cells; assay type: cell-based; conditions: Homo sapiens, Colony assay: 4 h treatment, concentration inhibiting 50% colony formation
Description: (§1) The cytotoxic activity is reported as IC50, the concentration inhibiting 50% of colony formation, calculated on concentration response curves. Resistance index R.I. is the ratio between the IC50 on resistant cells and the IC50 on sensitive cells.

[2] = tested on: P388 murine leukaemia resistant to doxorubicin; assay: Antitumor activity in vivo on P388/DX leukaemia; design: species or system BD2F1 mice; conditions: for T/C: Median survival time of treated mice/Median survival time of controls x 100, at Optimal Dose, i.v. one day after tumor transplantation; for O.D. (Optimal Dose): injected i.v. one day after tumor transplantation, 10^5 cell/mouse transplanted i.v.
[3] = tested on: LoVo/DX (colon adenocarcinoma resistant to doxorubicin); assay: Colony assay, cytotoxic activity on LoVo/DX cells; assay type: cell-based, human; conditions: for R.I. (Resistance Index): (IC50 Lovo/DX)/(IC50 LoVo); for IC50: Homo sapiens, LoVo/DX, Colony assay: 4 h treatment, concentration inhibiting 50% colony formation
Description: as §1

SMILES: CC(=O)[C@]1(O)Cc2c(O)c3c(c(O)c2[C@@H](O[C@H]2C[C@H](N)[C@H](OS(C)(=O)=O)[C@H](C)O2)C1)C(=O)c1ccccc1C3=O [Compound 1b, 4-demethoxy-4'-O-methansulfonyldaunorubicin]
- IC50 [1]: 0.0105 µg/mL (≈ 0.0182 µM)
- T/C [2]: 133%
- O.D. (Optimal Dose) [2]: 8.1 mg/kg
- R.I. (Resistance Index) [3]: 5.8
- IC50 [3]: 0.0605 µg/mL (≈ 0.105 µM)

SMILES: COc1cccc2c1C(=O)c1c(O)c3c(c(O)c1C2=O)C[C@@](O)(C(=O)CO)C[C@@H]3O[C@H]1C[C@H](N)[C@H](OS(C)(=O)=O)[C@H](C)O1 [Compound 2a, 4'-O-methansulfonyldoxorubicin]
- IC50 [1]: 0.0173 µg/mL (≈ 0.0278 µM)
- T/C [2]: 137%
- O.D. (Optimal Dose) [2]: 40.0 mg/kg
- R.I. (Resistance Index) [3]: 104.0
- IC50 [3]: 1.8 µg/mL (≈ 2.9 µM)

SMILES: COc1cccc2c1C(=O)c1c(O)c3c(c(O)c1C2=O)C[C@@](O)(C(=O)CO)C[C@@H]3O[C@H]1C[C@H](N)[C@H](O)[C@H](C)O1 [doxorubicin, reference compound]
- IC50 [1]: 0.049 µg/mL (≈ 0.0902 µM)
- O.D. (Optimal Dose) [2]: 16.9 mg/kg
- IC50 [3]: 2.55 µg/mL (≈ 4.7 µM)

— patent EP0683787B1, “4'-O-SULFONYL-ANTHRACYCLINE DERIVATIVES” (PHARMACIA & UPJOHN S.p.A., priority 1993, dated 1995)
